{"source": "patent US5792799A", "about": "“Parenteral delivery of MAO A inhibitors” (Athena Neurosciences, Inc., priority 1996, dated 1998)", "key": {"MAO A [1]": {"test_system": "MAO A", "experiment": "MAO A activity in mouse striatum, liver and gut after subcutaneous clorgyline (Example 1)", "assay_type": "in vivo, C57BL/6 mice", "experimental": "All experiments were performed in strict accordance with the National Institutes of Health (NIH) Guide for the Care and Use of Laboratory Animals. C57BL/6 mice were housed under constant temperature (22° C.) and humidity conditions in a room illuminated for 12 hours per day, with food and water freely available. […] Animals were sacrificed five hours after drug administration. Brains were removed, and dissection of the striata was performed within two minutes of cervical dislocation. Tissues were collected in buffer (pH 7.2), sonicated for approximately 10 seconds, and stored at -70° C. Similar procedures were used to collect, homogenize and store samples from the liver and gut of the animals.\n(§1) MAO A and MAO B activity were measured as previously described (Yu and Hertz, J. Neurochem. 39:1492-5 (1982)), using 14C-phenylethylamine and 14C-5-hydroxytryptamine as selective substrates for MAO B and MAO A, respectively. Preliminary experiments were performed to ensure that enzyme activity was linear with respect to time and enzyme concentration, and that no more than 10-20% of the substrate was consumed during the incubation period (data not shown). Protein was measured by the method of Lowry et al. (J. Biol. Chem. 193:265-75 (1951))."}, "MAO A [2]": {"test_system": "MAO A", "experiment": "Effect of repeated s.c. or oral administration of clorgyline on MAO A activity in striatum, intestine and liver (Example 3)", "assay_type": "in vivo, mice", "conditions": "for MAO A inhibition in the liver: single or multiple", "experimental": "as §1\nMAO A activity was measured and compared in the striatum, intestine and liver."}, "MAO A [3]": {"test_system": "MAO A", "experiment": "Comparison of parenteral (s.c.) and oral clorgyline on MAO A activity in striatum, gut and liver (Example 2)", "assay_type": "in vivo, mice", "conditions": "for MAO activity in the striatum, % of control values: mouse striatum; for extent of inhibition of intestinal MAO A activity: mouse intestine", "experimental": "as §1"}, "[4]": {"conditions": "0.6 mg/kg oral, single administration, 5 h"}, "[5]": {"conditions": "0.6 mg/kg, s.c. or oral, mouse liver"}, "[6]": {"conditions": "0.6 mg/kg parenteral (s.c.), 5 h"}}, "note": "Values joined by “and” are separate entries in the source; they are usually repeats but may differ in a detail not shown here. Equal values may be shown once.", "data": [{"smiles": "C#CCN(C)CCCOc1ccc(Cl)cc1Cl", "note": "[clorgyline]", "values": [{"measurement": "MAO A activity remaining in the gut", "setting": "MAO A [1]; 0.6 mg/kg s.c., 5 h after dose, mouse gut", "value": "50% and > 50%"}, {"measurement": "MAO A activity remaining in the liver", "setting": "MAO A [1]; 0.6 mg/kg s.c., 5 h after dose, mouse liver", "value": "> 50", "unit": "%"}, {"measurement": "inhibition of MAO A activity in the striatum", "setting": "MAO A [1]; 0.6 mg/kg s.c., 5 h after dose, mouse striatum", "value": "90% and > 90%"}, {"measurement": "MAO A inhibition in the gut", "setting": "MAO A [1]; 0.6 mg/kg s.c., mouse gut", "value": "approximately 50%"}, {"measurement": "MAO A inhibition in the liver", "setting": "MAO A [1]; 0.6 mg/kg s.c., mouse liver", "value": "approximately 50%"}, {"measurement": "MAO A activity in the gut", "setting": "MAO A [1]; 0.8 mg/kg s.c., 5 h after dose, mouse gut", "value": 31, "unit": "%"}, {"measurement": "MAO A activity in the liver", "setting": "MAO A [1]; 0.8 mg/kg s.c., 5 h after dose, mouse liver", "value": "about 50%"}, {"measurement": "MAO activity in the gut, % of control", "setting": "MAO A [1]; 1 mg/kg s.c., 5 h after dose, mouse gut", "value": "27 % of control"}, {"measurement": "MAO activity in the liver, % of control", "setting": "MAO A [1]; 1 mg/kg s.c., 5 h after dose, mouse liver", "value": "51 % of control"}, {"measurement": "MAO A inhibition in the striatum", "setting": "MAO A [1]; 1 mg/kg s.c., 5 h after dose, mouse striatum", "value": "> 90", "unit": "%"}, {"measurement": "intestine MAO A, % of control activity", "setting": "MAO A [2]; 0.6 mg/kg oral, multiple administration (five, every 24 h), 5 h after last", "value": "~15 % of control"}, {"measurement": "intestine MAO A, % of control activity", "setting": "MAO A [2]; [4]", "value": "Approximately 20 % of control"}, {"measurement": "striatal MAO A inhibition", "setting": "MAO A [2]; [4]", "value": 15, "unit": "%"}, {"measurement": "MAO A inhibition in the liver", "setting": "MAO A [2]; 0.6 mg/kg oral", "value": "≤ 25", "unit": "%"}, {"measurement": "striatal MAO A residual activity, % of control", "setting": "MAO A [2]; 0.6 mg/kg per os, multiple treatments (five, every 24 h), 5 h after last", "value": "about 50 % of control"}, {"measurement": "striatal MAO A activity, % of the control value", "setting": "MAO A [2]; 0.6 mg/kg s.c., five consecutive treatments every 24 h, 5 h after last", "value": "2 % of control"}, {"measurement": "inhibition of intestinal MAO A", "setting": "MAO A [2]; 0.6 mg/kg s.c., injected once, 5 h", "value": 50, "unit": "%"}, {"measurement": "striatal MAO A inhibition", "setting": "MAO A [2]; 0.6 mg/kg s.c., single administration, 5 h", "value": "approximately 90%"}, {"measurement": "MAO A inhibition in the liver", "setting": "MAO A [2]; 0.6 mg/kg subcutaneous", "value": "≤ 25", "unit": "%"}, {"measurement": "change in extent of MAO inhibition in the liver, single versus multiple treatments", "setting": "MAO A [2]; [5]", "value": "no significant changes"}, {"measurement": "MAO activity in the striatum, % of control values", "setting": "MAO A [3]; 0.6 mg/kg oral gavage, 5 h", "value": "40 % of control"}, {"measurement": "extent of inhibition of intestinal MAO A activity", "setting": "MAO A [3]; 0.6 mg/kg oral, 5 h", "value": 89, "unit": "%"}, {"measurement": "extent of inhibition of intestinal MAO A activity", "setting": "MAO A [3]; [6]", "value": 55, "unit": "%"}, {"measurement": "MAO activity in the striatum, % of control values", "setting": "MAO A [3]; [6]", "value": "11 % of control"}, {"measurement": "MAO A activity maintained in the gut", "setting": "MAO A [3]; 0.6 mg/kg parenteral injection, mouse gut", "value": 50, "unit": "%"}, {"measurement": "difference in extent of inhibition of MAO A activity in the liver, oral compared with subcutaneous", "setting": "MAO A [3]; 0.6 mg/kg, 5 h, mouse liver", "value": "No significant difference"}, {"measurement": "MAO A activity present in the liver after clorgyline exposure", "setting": "MAO A [3]; [5]", "value": "more than 50%"}]}]}
